In US20200031778A1, “NOVEL 5-SUBSTITUTED IMIDAZOLYLMETHYL DERIVATIVES” (Bayer CropScience Aktiengesellschaft, priority 2016, published 2020) one finds LogP and chromatographic logP data, which are given here for 79 compounds.

In general, chromatographic logP refers to lipophilicity estimated from chromatographic retention. A higher chromatographic logP goes with a more lipophilic compound.

The structures appear in SMILES notation.

A short description of this series: Log P by HPLC on reversed phase columns (EEC directive 79/831 Annex V.A8; methods [a], [b], [c]). The series is classed as physicochemical. The conditions noted are these: for chromatographic logP: reversed phase HPLC column, method [a]: LC-UV, acidic range, 0.1% formic acid in water and acetonitrile as eluent (linear gradient from 10% to 95% acetonitrile). The procedure: Measurement of Log P values was performed according to EEC directive 79/831 Annex V.A8 by HPLC (High Performance Liquid Chromatography) on reversed phase columns with the following methods: • ^[a] Log P value is determined by measurement of LC-UV, in an acidic range, with 0.1% formic acid in water and acetonitrile as eluent (linear gradient from 10% acetonitrile to 95% acetonitrile). • ^[b] Log P value is determined by measurement of LC-UV, in a neutral range, with 0.001 molar ammonium acetate solution in water and acetonitrile as eluent (linear gradient from 10% acetonitrile to 95% acetonitrile). • ^[c] Log P value is determined by measurement of LC-UV, in an acidic range, with 0.1% phosphoric acid and acetonitrile as eluent (linear gradient from 10% acetonitrile to 95% acetonitrile).
If more than one Log P value is available within the same method, all the values are given and separated by “+”.
Calibration was done with straight-chain alkan2-ones (with 3 to 16 carbon atoms) with known Log P values (measurement of Log P values using retention times with linear interpolation between successive alkanones). Lambda-max-values were determined using UV-spectra from 200 nm to 400 nm and the peak values of the chromatographic signals.

On to `CCC(C)C(O)(Cn1cncc1C#N)c1ccc(Cl)cc1` (single isomer, unassigned) [I-325], for which the LogP is 2.73^[a]. On the same count and under the same terms, for `N#Cc1cncn1CC(O)(CC1CC1)c1cccc(F)c1F` (stereo not shown) [I-517] the value was 2.20^[a]; for `N#Cc1cncn1CC(O)(c1cc(Cl)c(Br)cc1Cl)C1(F)CC1` (stereo not shown) [I-684], 2.86^[a]; for `N#Cc1cncn1CC(O)(c1ccc(/C=C/C2CC2)cc1Cl)C1(Cl)CC1` (stereo not shown) [I-365], 3.37^[a].

For `CC(C)(C)C(O)(C=CCC1CCCCC1)Cn1cncc1C#N` (stereo not shown) [I-673], the LogP is 4.05^[a]. With `N#Cc1cncn1CC(O)(c1ccc(Oc2ccc(Cl)cc2)cc1Cl)C1(Cl)CC1` (stereo not shown) [I-391], the LogP is 3.78^[a]. Turning to `N#Cc1cncn1CC(O)(CC1CC1)c1ccc(Cl)cc1C(F)(F)F` (stereo not shown) [I-460], the LogP was 3.10^[a]. For the compound `N#Cc1cncn1CC(O)(c1cc(Br)ccc1Cl)C1(F)CC1` (stereo not shown) [I-633], the LogP is 2.45^[a]. For the compound `OC(Cn1cncc1Br)c1ccc(Oc2ccc(C(F)(F)F)cc2)cc1C(F)(F)F` (stereo not shown) [I-38], the LogP was 2.96^[a]. As for `N#Cc1cncn1CC(O)(c1cccc(F)c1Cl)C1(F)CC1` (stereo not shown) [I-555], the LogP is 2.12^[a]. As for `N#Cc1cncn1CC(O)(c1ccc(F)cc1)C1CC1` (stereo not shown) [I-411], the LogP was 1.98^[a]. As for `OC(Cn1cncc1C(F)(F)F)c1ccc(Oc2ccc(Cl)cc2)cc1Cl` (stereo not shown) [I-39], the LogP is 3.80^[a]. In the case of `N#Cc1cncn1CC(O)(c1c(F)cc(F)cc1Br)C1(Cl)CC1` (stereo not shown) [I-566], the LogP is 2.49^[a]. On to `N#Cc1cncn1CC(O)(c1c(F)ccc(Cl)c1Cl)C1(F)CC1` (stereo not shown) [I-565], for which the LogP is 2.39^[a].

For `C[Si](C)(C)C#Cc1ccc(C(O)(Cn2cncc2C#N)C2(F)CC2)c(F)c1` (stereo not shown) [I-608], the LogP is 3.79^[a]. In the case of `N#Cc1cncn1CC(O)(C#CCC(Cl)CCl)C1(F)CC1` (stereo not shown) [I-604], the LogP was 2.08^[a]. Consider `OC(Cn1cncc1F)c1cnc(Oc2ccc(C(F)(F)F)cc2)cc1Cl` (stereo not shown) [I-126], for which the LogP was 2.27^[a]. `N#Cc1cncn1CC(O)(c1ccc(F)c(Br)c1)C1(F)CC1` (stereo not shown) [I-470]: the LogP is 2.40^[a]. On to `OC(Cn1cncc1Cl)c1ccc(Oc2ccc(Cl)cc2)nc1C(F)(F)F` (stereo not shown) [I-34], for which the LogP was 2.51^[a].

Turning to `OC(Cn1cncc1Cl)c1ccc(Oc2ccc(Cl)cc2)cc1Cl` (stereo not shown) [I-01], the LogP is 2.64^[a]. In the case of `N#Cc1cncn1CC(O)(c1cc(F)c(F)c(Cl)c1)C1(F)CC1` (stereo not shown) [I-476], the LogP was 2.54^[a]. In the case of `NC(=S)c1cncn1CC(O)(CC1CC1)c1ccc(F)cc1F` (stereo not shown) [I-484], the LogP is 1.53^[a]. Regarding `CC(O)(Cn1cncc1C#N)c1cnc(Oc2ccc(C(F)(F)F)cc2)cc1C(F)(F)F` (stereo not shown) [I-251], the LogP was 3.51^[a].

On to `N#Cc1cncn1CC(O)(c1cc(F)cc(F)c1Cl)C1(Cl)CC1` (stereo not shown) [I-619], for which the LogP is 2.33^[a].

`N#Cc1cncn1CC(O)(c1ccc(F)c(Cl)c1Cl)C1(Cl)CC1` (stereo not shown) [I-618]: the LogP is 2.58^[a].

Take `N#Cc1cncn1CC(O)(c1ccc(Br)c(Cl)c1Cl)C1(F)CC1` (stereo not shown) [I-681]: the LogP is 2.80^[a]. `N#Cc1cncn1CC(=O)c1ccc(Cl)s1` [IX-125] came in with a chromatographic logP of 1.88.

Consider `N#Cc1cncn1CC(O)c1cnc(Oc2ccc(Br)cc2)cc1C(F)F` (stereo not shown) [I-134], for which the LogP is 2.43^[a]. As for `N#Cc1cncn1CC(O)(c1c(F)ccc(Cl)c1F)C1(Cl)CC1` (stereo not shown) [I-622], the LogP was 2.47^[a]. For the compound `CC(O)(Cn1cncc1C(F)(F)F)c1ccc(Oc2ccc(I)cc2)cc1F` (stereo not shown) [I-179], the LogP was 4.11^[a]. As to `C#Cc1ccc(C(O)(Cn2cncc2C#N)C2(Cl)CC2)c(Cl)c1` (stereo not shown) [I-370], the LogP was 2.52^[a]. Same read-out and setting: for `CC(C)(C)CC(O)(Cn1cncc1C#N)c1ccccc1F` (stereo not shown) [I-274] the value was 2.92^[a]; for `CCCC(C)C#CC(O)(Cn1cncc1C#N)C1(Cl)CC1` (stereo not shown) [I-658], 2.82^[a]; for `N#Cc1cncn1CC(O)(c1ccc(F)c(F)c1F)C1(F)CC1` (stereo not shown) [I-634], 2.18^[a]. The same measure, in the same setting: the same measure for `CC(O)(Cn1cncc1F)c1ccc(Oc2ccc(Cl)cc2)cc1C(F)(F)F` (stereo not shown) [I-211]: 2.64^[a]; for `N#Cc1cncn1CC(O)(CCCC1CCCCC1)C1(F)CC1` (stereo not shown) [I-672]: 3.71^[a]; for `OC(Cn1cncc1Cl)c1ccc(Oc2ccc(Cl)cc2)cc1C(F)(F)F` (stereo not shown) [I-21]: 2.86^[a]. Consider `N#Cc1cncn1CC(O)c1ccc(Oc2ccc(S(F)(F)(F)(F)F)cc2)nc1Cl` (stereo not shown) [I-68], for which the LogP was 3.15^[a]. As to `N#Cc1cncn1CC(O)(c1cc(F)c(Cl)c(F)c1)C1(F)CC1` (stereo not shown) [I-475], the LogP was 2.54^[a].

As to `N#Cc1cncn1CC(O)(c1cc(F)ccc1Cl)C1(Cl)CC1` (stereo not shown) [I-338], the LogP was 2.30^[a]. In the case of `CCc1ccc(C#CC(O)(Cn2cncc2C#N)C2(Cl)CC2)cc1` (stereo not shown) [I-320], the LogP was 3.11^[a]. Consider `COCOC(Cn1cncc1C#N)c1ccc(Oc2ccc(Cl)cc2)cc1C(F)(F)F` (stereo not shown) [I-82], for which the LogP is 4.03^[a].

Regarding `COC(Cn1cncc1C#N)c1ccc(Oc2ccc(Br)cc2)cc1Br` (stereo not shown) [I-63], the LogP was 4.20^[a]. `CC(C)C(O)(Cn1cncc1C#N)c1ccc(F)cc1F` (stereo not shown) [I-419]: the LogP is 2.35^[a]. As for `Cc1ccc(C(O)(Cn2cncc2C#N)C2(Cl)CC2)c(Cl)c1` (stereo not shown) [I-331], the LogP was 2.58^[a]. In the case of `CC(C)CCCC(O)(Cn1cncc1C#N)C1(Cl)CC1` (stereo not shown) [I-599], the LogP was 3.33^[a]. In the case of `CC(O)(Cn1cncc1Cl)c1ccc(Oc2ccc(Br)nc2)cc1Cl` (stereo not shown) [I-203], the LogP is 2.11^[a]. Regarding `OC(Cn1cncc1F)c1ccc(Oc2ccc(Cl)cc2)nc1C(F)(F)F` (stereo not shown) [I-123], the LogP is 2.25^[a].

For the compound `N#Cc1cncn1CC(O)(c1cc(F)cc(Cl)c1F)C1(Cl)CC1` (stereo not shown) [I-610], the LogP is 2.49^[a]. In the case of `N#Cc1cncn1CC(O)(C#CC1(c2ccc(F)cc2)CC1)C1(Cl)CC1` (stereo not shown) [I-605], the LogP was 2.98^[a]. As to `CC(C)(C)CC(O)(Cn1cncc1C#N)c1ccccc1` (stereo not shown) [I-242], the LogP was 2.77^[a]. In the case of `N#Cc1cncn1CC(O)(c1cc(F)cc(F)c1Cl)C1(F)CC1` (stereo not shown) [I-569], the LogP is 2.26^[a]. Consider `COc1cc(F)ccc1C(O)Cn1cncc1Cl` (stereo not shown) [I-07], for which the LogP is 1.07^[a]. Still for that read-out and setting: the same measure for `CCCC(O)(Cn1cncc1C#N)c1ccc(F)cc1Cl` (stereo not shown) [I-402]: 2.73^[a]; for `N#Cc1cncn1CC(O)(c1ccc(F)cc1C(F)(F)F)C1(F)CC1` (stereo not shown) [I-382]: 2.46^[a]; for `CCCCCC(O)(Cn1cncc1C#N)c1ccccc1C(F)(F)F` (stereo not shown) [I-346]: 3.23^[a].

Regarding `N#Cc1cncn1CC(O)(CC1CC1)c1ccc(F)cc1F` (stereo not shown) [I-414], the LogP was 1.76^[a].

For `COC(Cn1cncc1C#N)c1ccc(Oc2ccc(Cl)cc2)cc1F` (stereo not shown) [I-60], the LogP was 3.65^[a]. On the same count and under the same terms, the same measure for `OC(Cn1cncc1F)c1ccc(Oc2ccc(S(F)(F)(F)(F)F)cc2)nc1C(F)(F)F` (stereo not shown) [I-147]: 2.59^[a]; for `CC(O)(Cn1cncc1Br)c1ccc(Oc2ccc(Cl)cc2)cc1Cl` (stereo not shown) [I-198]: 2.75^[a]. Still for that read-out and setting: for `N#Cc1cncn1CC(O)(c1ccc(C#CC2CCCC2)cc1F)C1(F)CC1` (stereo not shown) [I-644] the value was 3.74^[a]; for `CC(C)(C)CC(O)(Cn1cncc1C#N)c1ccccc1Br` (stereo not shown) [I-308], 3.27^[a]; for `OC(Cn1cncc1Br)c1ccc(Oc2ccc(Cl)cc2)cc1Cl` (stereo not shown) [I-14], 2.60^[a]. For `CC(C)(C)CC(O)(Cn1cncc1C#N)c1ccc(F)cc1Cl` (stereo not shown) [I-259], the LogP was 3.39^[a]. Regarding `N#Cc1cncn1CC(O)(c1ccc(F)cc1F)C1CCCC1` (stereo not shown) [I-478], the LogP is 2.78^[a]. For the compound `CC(=O)c1cncn1CC(=O)c1cnc(Oc2ccc(Cl)cc2F)cc1C(F)(F)F` [IX-102], the chromatographic logP worked out at 3.21. As for `N#Cc1cncn1CC(O)(c1ccc(-c2ccccc2)cc1)C1(Cl)CC1` (stereo not shown) [I-280], the LogP is 2.94^[a]. Consider `N#Cc1cncn1CC(O)(c1cccc(Cl)c1Cl)C1(Cl)CC1` (stereo not shown) [I-337], for which the LogP is 2.52^[a].

`CCCC(O)(Cn1cncc1C#N)c1ccc(Cl)cc1Cl` (stereo not shown) [I-292]: the LogP was 3.14^[a]. `COC(Cn1cncc1C(F)(F)F)c1ccc(Oc2ccc(Cl)cc2)cc1F` (stereo not shown) [I-93]: the LogP was 4.34^[a]. Same read-out and setting: the same measure for `N#Cc1cncn1CC(O)(c1ccc(F)cc1Br)C1CC1` (stereo not shown) [I-398]: 2.46^[a]; for `CC(=O)c1cncn1CC(C)(O)c1ccc(Oc2ccc(C(F)(F)F)cc2)cc1C(F)(F)F` (stereo not shown) [I-207]: 3.27^[a]. As to `O=C(Cn1cncc1Cl)c1ccc(Oc2ccc(OC(F)(F)F)cc2)c(Br)c1` [IX-10], the chromatographic logP is 3.41. Regarding `N#Cc1cncn1CC(O)(C#Cc1ccc(C(F)(F)F)cc1)C1(Cl)CC1` (stereo not shown) [I-350], the LogP is 3.09^[a]. `N#Cc1cncn1CC(O)(CC1CC1)c1cc(F)cc(Br)c1` (stereo not shown) [I-532]: the LogP was 2.65^[a]. As to `N#Cc1cncn1CC(O)(c1cc(F)ccc1F)C1(F)CC1` (stereo not shown) [I-523], the LogP is 2.02^[a].

With `N#Cc1cncn1CC(O)(c1ccc(Br)cc1F)C1CC1` (stereo not shown) [I-404], the LogP is 2.62^[a]. Turning to `N#Cc1cncn1CC(O)c1ccc(Oc2ccc(Br)cc2)cc1F` (stereo not shown) [I-48], the LogP was 3.04^[a].

Consider `N#Cc1cncn1CC(O)(c1c(F)cccc1F)C1(F)CC1` (stereo not shown) [I-520], for which the LogP was 1.94^[a].
